For this assay, the system named is NG108-15. In words: Mean percent neurite outgrowth (cells with neurites longer than cell body/total cells) was determined in NG108-15 cells after 4 hr incubation at 35 uM. Format: functional, Mus musculus x Rattus norvegicus.

Data on six compounds can be found in ChEMBL document CHEMBL1137877, “Synthesis and evaluation of 4-(1-aminoalkyl)-N-(4-pyridyl)cyclohexanecarboxamides as Rho kinase inhibitors and neurite outgrowth promoters” (2004).

SMILES strings stand for the structures.

The compound `C[C@@H](N)[C@H]1CC[C@H](C(=O)Nc2ccncc2)CC1.Cl.Cl` came in with an Activity of 82%.
In the case of `CCCCCCCC[C@@H](N)C1CCC(C(=O)Nc2ccncc2)CC1.Cl.Cl` (stereo partly specified) it was 0%.
Compound `C[C@H](N)C1CCC(C(=O)Nc2ccncc2)CC1.Cl.Cl` (stereo partly specified) displayed an Activity of 70%.
In the case of `C[C@@H](N)C1CCC(C(=O)Nc2ccncc2)CC1.Cl.Cl` (stereo partly specified), the Activity is listed as 68%.
As to `CCC[C@@H](N)C1CCC(C(=O)Nc2ccncc2)CC1.Cl.Cl` (single isomer, unassigned; (+)), the Activity came to 48%.
In the case of `CCC[C@H](N)C1CCC(C(=O)Nc2ccncc2)CC1.Cl.Cl` (stereo partly specified) it was 23%.
